{"source": "patent US20050148254A1", "about": "“Light-activated biocidal polyelectrolytes” (priority 2003, published 2005)", "system": "Bacillus anthracis spores", "assay_type": "cell-based, Bacillus anthracis (Sterne)", "data": [{"smiles": "CCCCCCCCCCCC[N+](C)(C)C.[Br-]", "note": "[DTAB, dodecyltrimethylammonium bromide]", "values": [{"measurement": "% killing", "value": 40, "unit": "%"}, {"measurement": "Spore colonies", "value": "84 ± 4"}, {"measurement": "reduction in bacterial survival", "value": "approximately 40%"}, {"measurement": "reduction of bacterial survival", "value": "approximately 40%"}]}, {"smiles": "CN(C)c1ccc2nc3ccc(=[N+](C)C)cc-3sc2c1", "note": "[MB, methylene blue]", "values": [{"measurement": "inhibition of B. anthracis survival", "value": "no inhibition"}, {"measurement": "reduction in survival for B. anthracis", "value": 75, "unit": "%"}]}, {"smiles": "O=C1OC2(c3cc(I)c(O)c(I)c3Oc3c2cc(I)c(O)c3I)c2c(Cl)c(Cl)c(Cl)c(Cl)c21", "note": "[RBL, Rose Bengal lactone]", "values": [{"measurement": "reduction in survival for B. anthracis", "value": "approximately 40%"}]}]}
